This is an account of results in US20080234304A1, “N3-Pyridyl-Thiamine And Its Use In Cancer Treatments” (AVEO PHARMACEUTICALS, INC., priority 2004, published 2008).

pIC50: −log10 of the molar value. Entries after “also recorded” stand apart in the source; their conditions may differ. Like-named read-outs stand apart in the source and are kept apart here.

One test deals with T1, transketolase (Homo sapiens, UniProt P29401).
T1 construct: Cells were lysed by vortexing and cell extracts assayed for transketolase activity; endogenous in cells; other cell lines not specified
T1 sequence (P29401 1-623): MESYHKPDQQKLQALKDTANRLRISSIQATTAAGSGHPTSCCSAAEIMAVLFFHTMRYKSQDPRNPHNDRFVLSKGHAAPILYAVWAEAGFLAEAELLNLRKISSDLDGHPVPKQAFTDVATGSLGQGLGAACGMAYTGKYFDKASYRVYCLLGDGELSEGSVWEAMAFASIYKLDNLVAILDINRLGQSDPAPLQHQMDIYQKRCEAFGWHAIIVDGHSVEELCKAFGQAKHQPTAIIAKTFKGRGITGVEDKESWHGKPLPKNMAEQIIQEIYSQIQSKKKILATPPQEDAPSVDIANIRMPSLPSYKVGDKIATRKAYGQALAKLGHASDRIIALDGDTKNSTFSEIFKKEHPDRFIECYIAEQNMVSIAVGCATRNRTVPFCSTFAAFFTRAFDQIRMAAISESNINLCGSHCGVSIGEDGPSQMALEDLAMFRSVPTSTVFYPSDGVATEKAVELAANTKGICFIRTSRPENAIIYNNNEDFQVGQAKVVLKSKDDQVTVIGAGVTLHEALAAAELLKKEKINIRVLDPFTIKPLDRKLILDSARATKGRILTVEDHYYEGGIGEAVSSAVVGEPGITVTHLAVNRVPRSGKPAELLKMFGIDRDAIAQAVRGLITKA
Put plainly: transketolase activity in cell based assay (lysates of N3PT-treated cells, GAPDH-coupled NADH readout). The method, then: Human carcinoma cell lines, such as, but not restricted to, HCT116, HT1080, DLD-1, Rv22, MIA PA CA-2, HCT-15, and murine cell lines, CT26, 4T1 (all cell lines described are available from the ATCC), were cultured in standard conditions (37 C, 5% CO2) in DMEM media (10% FBS, 1% Penicillin-Streptomycin) and harvested at 60-80% confluency by trypsinization. Approximately 2 million cells were collected in an Eppendorf tube and washed 2 times (2×) with PBS by centrifugation and stored at −20° C. as cell pellets. Ice-cold lysis buffer (1 ml) (20 mM HEPES, pH 7.5, 1 mM EDTA, 0.2 g/l Triton X-100 and 0.2 g/L sodium deoxycholate, supplemented with 1 mM DTT and 1 mM PMSF just before use) was added to each cell pellet. Cells were lysed by vortexing and cell extracts assayed for transketolase activity at pH 7.5, by coupling a subsequent glyceraldehyde-3-phosphate dehydrogenase (GAPDH) reaction and measuring conversion of NAD to NADH (FIG. 1).
The assay was carried out as follows. […] of […] assay buffer containing final concentrations of 50 mM HEPES, 40 mM KCl, 2.5 mM MgCl2, 5 mM NaArsenate, 1 mM NAD, 2 unit/ml glyceraldehydes-3-phosphate dehydrogenase (GAPDH) was added to 80 μl of lysate. Reaction kinetics were monitored on a fluorescent plate reader to allow any possible background activity via GAPDH to burn out. Then 5 ul of substrate mix containing final concentrations of 0.5 mM ribose-5-phosphate and 0.5 mM xylulose-5-phosphate was added to initiate the reaction. The reaction kinetics were monitored using a fluorescent plate reader, and the slope of the initial linear range was recorded as the velocity of the reaction (FU/min).
TK, kGDH and PDH enzymes all utilize thiamine pyrophosphate (TPP) as a co-factor for their catalysis. Conventional cell culture media (e.g., DMEM, RPMI) have high levels of thiamine (12 μM and 3 μM, respectively). […]
Log-phase growing cells were trypsinized and resuspended in TDM. […] TK activities could be measured from ≧5000 cells in most cell lines tested. […]
Enzymatic inhibition was expressed as percent of control cells that were not treated with compounds. […]

In the next test the test system is LAMA84. Put plainly: inhibition of proliferation of LAMA84 cells. The test is classed as cell-based. The note with it: LAMA84 chronic myeloid leukemia cell line. The method, then:
The ability of N3PT to inhibit proliferation of these cell lines was then tested. LAMA84 was the most sensitive to N3PT, displaying an IC50 of 0.3 μM. The other cell lines, HCT116 and K562, were less sensitive, displaying an IC50 of approximately 2 μM in both cases. LAMA84 also had the highest TK activity (per cell) among these three cancer lines.

Turning to `Cc1ccc(C[n+]2csc(CCO)c2C)c(N)n1` [N3PT, 3-[(2-amino-6-methyl-3-pyridinyl)methyl]-5-(2-hydroxyethyl)-4-methyl thiazolium], at transketolase (cells treated two days, washed out, TK monitored days 3-7), the “duration of inhibition of cellular transketolase activity” value is given as “long lasting; also recorded: persists for several days”. Further, the pIC50 at transketolase (extracts from cells incubated with increasing concentrations of N3PT, read-out: IC50 transketolase (selectivity comparison, FIG. 9)) was 8.15; at transketolase (production of glyceraldehyde-3-phosphate by transketolase, read-out: IC50 transketolase in cell assays), 7.57; in the test with LAMA84 it was 6.52.
